Patent US20090149531A1, “CHEMICAL COMPOSITION DERIVED FROM P-HYDROXYPHENYL PROPIONIC ACID FOR THE TREATMENT OF PSORIASIS” (APOTEKNOS PARA LA PIEL, S.L., priority 2007, published 2009)

Test: Assessment of erythema in the hairless rat study
Format: in vivo, hairless rats
Details: 0=absence, 1=low grade, 3=high grade
Procedure: To do this Calcitriol was used as the reference product at 0.01% and compound A was used as the test product at 1% and 0.1% (100 μg/cm^2 and 10 μg/cm^2, respectively). A Control Group was included, administered only with the vehicle (absolute ethanol).
The treatments were administered topically, once a day for 10 days (100 μg/side/animal). The animals were weighed on a daily basis throughout the study and the grade of erythema was evaluated (0=Absence of erythema, 1=Low grade erythema, 3=High grade erythema). On the last day of the study, day 11, the amount of corneous material extracted from the epidermis of the animals was evaluated.

Structure (SMILES): C=C1C(=O)O[C@H](CCc2ccc(OC)cc2)[C@@H]1C [Compound A]
- Assessment of erythema (mean grade) (Compound A 0.1% topical once a day, Baseline): 0.0 ± 0.00
- Assessment of erythema (mean grade) (Compound A 0.1% topical once a day, Day 2): 0.0 ± 0.00
- Assessment of erythema (mean grade) (Compound A 0.1% topical once a day, Day 3): 0.0 ± 0.00
- Assessment of erythema (mean grade) (Compound A 0.1% topical once a day, Day 4): 0.0 ± 0.00
- Assessment of erythema (mean grade) (Compound A 0.1% topical once a day, Day 5): 0.0 ± 0.00
- Assessment of erythema (mean grade) (Compound A 0.1% topical once a day, Day 6): 0.0 ± 0.00
- Assessment of erythema (mean grade) (Compound A 0.1% topical once a day, Day 7): 0.0 ± 0.00
- Assessment of erythema (mean grade) (Compound A 0.1% topical once a day, Day 8): 0.0 ± 0.00
- Assessment of erythema (mean grade) (Compound A 0.1% topical once a day, Day 9): 0.0 ± 0.00
- Assessment of erythema (mean grade) (Compound A 0.1% topical once a day, Day 10): 0.0 ± 0.00
- Assessment of erythema (mean grade) (Compound A 0.1% topical once a day, Day 11): 0.0 ± 0.00
- Assessment of erythema (mean grade) (Compound A 1% topical once a day, Baseline): 0.0 ± 0.00
- Assessment of erythema (mean grade) (Compound A 1% topical once a day, Day 2): 1.0 ± 0.00
- Assessment of erythema (mean grade) (Compound A 1% topical once a day, Day 3): 1.0 ± 0.00
- Assessment of erythema (mean grade) (Compound A 1% topical once a day, Day 4): 1.2 ± 0.11
- Assessment of erythema (mean grade) (Compound A 1% topical once a day, Day 5): 1.3 ± 0.17
- Assessment of erythema (mean grade) (Compound A 1% topical once a day, Day 6): 1.5 ± 0.22
- Assessment of erythema (mean grade) (Compound A 1% topical once a day, Day 7): 1.5 ± 0.22
- Assessment of erythema (mean grade) (Compound A 1% topical once a day, Day 8): 1.2 ± 0.40
- Assessment of erythema (mean grade) (Compound A 1% topical once a day, Day 9): 0.9 ± 0.15
- Assessment of erythema (mean grade) (Compound A 1% topical once a day, Day 10): 0.9 ± 0.15
- Assessment of erythema (mean grade) (Compound A 1% topical once a day, Day 11): 1.2 ± 0.17
